How the values were obtained:
Type in all cases: cell-based
[1] = tested on: NCI-H929 (multiple myeloma); test: Inhibition of cell proliferation, CellTiter-Glo, NCI-H929; conditions: Homo sapiens, 72 h
In short: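 Cells were grown in medium with 10% FBS at 37° C, 5% CO2. Cell number was read as CellTiter-Glo luminescence (cellular ATP), with untreated wells as control.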

[2] = tested on: COLO205 (colon); test: Inhibition of cell proliferation, CellTiter-Glo, COLO205; conditions: Homo sapiens, COLO 205, 72 h
In short: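 Exponentially growing COLO205 cells in medium with 10% FBS were plated below 2000 cells/well at 37 °C, 5% CO2. Untreated wells served as controls.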

[3] = molecular target: T1, human IGF-1R (NIH-3T3 cells over expressing human IGF-1R) (Homo sapiens, UniProt P08069); test: IGF-1R cellular autophosphorylation (DELFIA); conditions: IGF-1 stimulated
T1 construct: expressed in transfected cells; host or cells: NIH-3T3 (mouse fibroblasts)
In short: (§1)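 Read-out: DELFIA on lysates, receptor-specific capture antibody plus europium-labelled anti-phosphotyrosine, reported as % of IGF-1- or insulin-stimulated signal. Transfected NIH-3T3 cells got compound (30 uM–1.5 nM, 2 h) before a 15 min ligand pulse: IGF-1 30 ng/mL for IGF-1R, insulin 3 ug/mL for IR.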

[4] = molecular target: T2, IR (NIH-3T3 cells over expressing human IGF-1R or IR) (Homo sapiens, UniProt P06213); test: IR cellular autophosphorylation (DELFIA); conditions: NIH-3T3 cells over expressing IR, insulin stimulated
T2 construct: expressed in transfected cells; host or cells: NIH-3T3 (mouse fibroblasts)
In short: as §1

T2 sequence (P06213 28-1382): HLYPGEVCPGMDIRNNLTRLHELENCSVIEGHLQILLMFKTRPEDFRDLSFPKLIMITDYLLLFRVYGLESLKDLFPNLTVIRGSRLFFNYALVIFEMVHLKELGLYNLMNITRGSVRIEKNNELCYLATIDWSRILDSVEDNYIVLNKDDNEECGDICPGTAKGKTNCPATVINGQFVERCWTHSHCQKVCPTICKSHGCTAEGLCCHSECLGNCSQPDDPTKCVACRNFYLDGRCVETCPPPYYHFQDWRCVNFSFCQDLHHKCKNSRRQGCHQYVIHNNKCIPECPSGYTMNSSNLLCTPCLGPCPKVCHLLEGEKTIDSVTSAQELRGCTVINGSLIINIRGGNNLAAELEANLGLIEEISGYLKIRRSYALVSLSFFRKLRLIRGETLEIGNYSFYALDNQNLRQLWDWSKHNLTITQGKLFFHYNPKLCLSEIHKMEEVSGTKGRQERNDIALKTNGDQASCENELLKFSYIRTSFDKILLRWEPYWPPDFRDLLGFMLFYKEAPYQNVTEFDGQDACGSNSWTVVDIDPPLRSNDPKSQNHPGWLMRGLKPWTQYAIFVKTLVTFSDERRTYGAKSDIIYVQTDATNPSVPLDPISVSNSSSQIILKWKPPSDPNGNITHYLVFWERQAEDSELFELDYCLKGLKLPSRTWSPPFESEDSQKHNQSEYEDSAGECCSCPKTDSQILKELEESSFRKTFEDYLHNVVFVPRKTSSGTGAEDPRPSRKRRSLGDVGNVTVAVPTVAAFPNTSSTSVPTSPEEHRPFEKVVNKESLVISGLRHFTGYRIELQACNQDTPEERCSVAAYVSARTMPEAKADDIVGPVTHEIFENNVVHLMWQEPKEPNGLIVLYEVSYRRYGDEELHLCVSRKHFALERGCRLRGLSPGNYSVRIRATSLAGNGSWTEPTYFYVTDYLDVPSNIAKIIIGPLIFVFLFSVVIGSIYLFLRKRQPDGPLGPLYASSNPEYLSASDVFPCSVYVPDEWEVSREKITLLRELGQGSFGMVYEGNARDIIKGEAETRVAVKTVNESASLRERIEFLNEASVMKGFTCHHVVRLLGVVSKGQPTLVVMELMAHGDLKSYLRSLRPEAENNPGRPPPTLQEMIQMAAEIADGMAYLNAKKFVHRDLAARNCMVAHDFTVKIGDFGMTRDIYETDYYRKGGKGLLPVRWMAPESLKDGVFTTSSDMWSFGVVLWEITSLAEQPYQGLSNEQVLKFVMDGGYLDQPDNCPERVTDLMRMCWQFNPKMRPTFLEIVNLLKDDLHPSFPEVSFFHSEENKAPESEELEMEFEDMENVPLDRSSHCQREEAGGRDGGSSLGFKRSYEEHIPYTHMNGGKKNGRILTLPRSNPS
T1 sequence (P08069 31-1367): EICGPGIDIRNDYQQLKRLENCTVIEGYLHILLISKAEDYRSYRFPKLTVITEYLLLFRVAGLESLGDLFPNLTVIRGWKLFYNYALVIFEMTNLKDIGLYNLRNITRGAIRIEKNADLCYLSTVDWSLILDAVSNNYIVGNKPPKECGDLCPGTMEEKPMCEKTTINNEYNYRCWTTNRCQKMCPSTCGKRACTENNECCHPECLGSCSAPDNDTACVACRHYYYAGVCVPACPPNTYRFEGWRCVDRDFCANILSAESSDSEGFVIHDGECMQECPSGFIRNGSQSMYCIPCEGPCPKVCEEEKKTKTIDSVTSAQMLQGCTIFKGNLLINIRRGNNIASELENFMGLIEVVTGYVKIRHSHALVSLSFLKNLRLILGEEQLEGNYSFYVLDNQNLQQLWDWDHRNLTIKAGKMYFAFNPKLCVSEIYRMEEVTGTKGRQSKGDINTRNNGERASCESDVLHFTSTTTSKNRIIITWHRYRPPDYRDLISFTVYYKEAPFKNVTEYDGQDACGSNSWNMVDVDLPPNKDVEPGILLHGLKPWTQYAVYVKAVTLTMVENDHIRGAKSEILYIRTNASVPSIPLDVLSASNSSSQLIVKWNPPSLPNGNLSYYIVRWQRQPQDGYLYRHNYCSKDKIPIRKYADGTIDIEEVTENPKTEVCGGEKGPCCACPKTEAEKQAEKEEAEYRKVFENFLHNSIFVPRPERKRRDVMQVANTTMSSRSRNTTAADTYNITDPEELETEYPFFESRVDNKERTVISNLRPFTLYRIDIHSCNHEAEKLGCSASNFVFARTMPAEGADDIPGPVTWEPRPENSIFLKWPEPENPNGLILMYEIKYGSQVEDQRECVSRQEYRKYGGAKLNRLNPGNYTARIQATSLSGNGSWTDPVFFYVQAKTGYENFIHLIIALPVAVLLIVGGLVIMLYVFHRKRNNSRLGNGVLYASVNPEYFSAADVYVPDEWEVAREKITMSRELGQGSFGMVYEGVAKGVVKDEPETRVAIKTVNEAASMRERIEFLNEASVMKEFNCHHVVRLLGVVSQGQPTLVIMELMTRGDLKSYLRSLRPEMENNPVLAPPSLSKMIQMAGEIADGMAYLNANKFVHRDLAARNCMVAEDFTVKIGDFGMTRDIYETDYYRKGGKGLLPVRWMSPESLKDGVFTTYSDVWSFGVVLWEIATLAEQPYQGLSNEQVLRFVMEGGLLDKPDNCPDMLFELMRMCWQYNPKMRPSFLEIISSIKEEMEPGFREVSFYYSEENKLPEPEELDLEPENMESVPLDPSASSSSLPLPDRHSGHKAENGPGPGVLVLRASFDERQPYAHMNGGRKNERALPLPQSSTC

SMILES	IC50 [1] [nM]	IC50 [2] [nM]	IC50 [3] [nM]	IC50 [4] [nM]
CCCN1CCN(c2ccc(Nc3nccc(-c4c(-c5ccc(OCC)c(C(=O)Nc6c(F)cccc6F)c5)nc5ccccn45)n3)c(OC)c2)CC1 [Example 178, N-(2,6-difluorophenyl)-2-(ethyloxy)-5-[3-(2-{[2-(methyloxy)-4-(4-propyl-1-piperazinyl)phenyl]amino}-4-pyrimidinyl)imidazo[1,2-a]pyridin-2-yl]benzamide]	< 250	250 to 1000	< 100	< 100
CCOc1ccc(-c2nc3ccccn3c2-c2ccnc(Nc3ccc(N4CCN(C(C)C)CC4)cc3OC)n2)cc1C(=O)Nc1c(F)cccc1F [Example 177, N-(2,6-difluorophenyl)-2-(ethyloxy)-5-[3-(2-{[4-[4-(1-methylethyl)-1-piperazinyl]-2-(methyloxy)phenyl]amino}-4-pyrimidinyl)imidazo[1,2-a]pyridin-2-yl]benzamide]	< 250	250 to 1000	< 100	< 100
COc1cc(N2CCC(N3CCN(CCF)CC3)CC2)ccc1Nc1nccc(-c2c(-c3cccc(C(=O)Nc4c(F)cccc4F)c3)nc3c(C)cccn23)n1 [Example 60, N-(2,6-difluorophenyl)-3-[3-(2-{[4-{4-[4-(2-fluoroethyl)-1-piperazinyl]-1-piperidinyl}-2-(methyloxy)phenyl]amino}-4-pyrimidinyl)-8-methylimidazo[1,2-a]pyridin-2-yl]benzamide]	250 to 1000	250 to 1000	< 100	< 100
COc1cc(C2CCN(C3CCN(CCS(C)(=O)=O)CC3)CC2)ccc1Nc1nccc(-c2c(-c3cccc(C(=O)Nc4c(F)cccc4F)c3)nc3ccccn23)n1 [Example 99, N-(2,6-difluorophenyl)-3-(3-{2-[(2-(methyloxy)-4-{1′-[2-(methylsulfonyl)ethyl]-1,4′-bipiperidin-4-yl}phenyl)amino]-4-pyrimidinyl}imidazo[1,2-a]pyridin-2-yl)benzamide]	< 250	< 250	< 100	< 100
CCOc1cc(N2CCN(C(C)C)CC2)ccc1Nc1nccc(-c2c(-c3cccc(C(=O)Nc4c(F)cccc4F)c3)nc3ccccn23)n1 [Example 171, N-(2,6-difluorophenyl)-3-{3-[2-({2-(ethyloxy)-4-[4-(1-methylethyl)-1-piperazinyl]phenyl}amino)-4-pyrimidinyl]imidazo[1,2-a]pyridin-2-yl}benzamide]	250 to 1000	250 to 1000	< 100	< 100
COc1cc(N2CCN(CCS(C)(=O)=O)CC2)c(C)cc1Nc1nccc(-c2c(-c3cccc(C(=O)Nc4c(F)cccc4F)c3)nc3ccccn23)n1 [Example 148, N-(2,6-difluorophenyl)-3-(3-{2-[(5-methyl-2-(methyloxy)-4-{4-[2-(methylsulfonyl)ethyl]-1-piperazinyl}phenyl)amino]-4-pyrimidinyl}imidazo[1,2-a]pyridin-2-yl)benzamide]	< 250	< 250	< 100	< 100
COc1cc(C2CCN(CC(C)C)CC2)ccc1Nc1nccc(-c2c(-c3ccc(OC)c(C(=O)Nc4c(F)cccc4F)c3)nc3ccccn23)n1 [Example 160, N-(2,6-difluorophenyl)-2-(methyloxy)-5-{3-[2-({2-(methyloxy)-4-[1-(2-methylpropyl)-4-piperidinyl]phenyl}amino)-4-pyrimidinyl]imidazo[1,2-a]pyridin-2-yl}benzamide]	< 250	250 to 1000	< 100	< 100
CCCc1cc(N2CCC(N3CCCCC3)CC2)ccc1Nc1nccc(-c2c(-c3cccc(C(=O)Nc4c(F)cccc4F)c3)nc3ccccn23)n1 [Example 41, 3-[3-(2-{[4-(1,4′-bipiperidin-1′-yl)-2-propylphenyl]amino}-4-pyrimidinyl)imidazo[1,2-a]pyridin-2-yl]-N-(2,6-difluorophenyl)benzamid]	250 to 1000	250 to 1000	< 100	100 to 500
COc1cc(N2CCC(C3CCN(CCS(C)(=O)=O)CC3)CC2)ccc1Nc1nccc(-c2c(-c3ccc(OC)c(C(=O)Nc4c(F)cccc4F)c3)nc3ccccn23)n1 [Example 98, N-(2,6-difluorophenyl)-2-(methyloxy)-5-(3-{2-[(2-(methyloxy)-4-{1′-[2-(methylsulfonyl)ethyl]-4,4′-bipiperidin-1-yl}phenyl)amino]-4-pyrimidinyl}imidazo[1,2-a]pyridin-2-yl)benzamide]	250 to 1000	250 to 1000	< 100	< 100
CCCN1CCC(c2ccc(Nc3nccc(-c4c(-c5ccc(OC)c(C(=O)Nc6c(F)cccc6F)c5)nc5ccccn45)n3)c(OC)c2)CC1 [Example 137, N-(2,6-difluorophenyl)-2-(methyloxy)-5-[3-(2-{[2-(methyloxy)-4-(1-propyl-4-piperidinyl)phenyl]amino}-4-pyrimidinyl)imidazo[1,2-a]pyridin-2-yl]benzamide]	< 250	250 to 1000	< 100	< 100

Continued, values first:

IC50 [1] [nM]	IC50 [2] [nM]	IC50 [3] [nM]	IC50 [4] [nM]	SMILES
< 250	< 250	< 100	< 100	CCOc1ccc(-c2nc3ccccn3c2-c2ccnc(Nc3cc(C)c(N4CCCN(CCS(C)(=O)=O)CC4)cc3OC)n2)cc1C(=O)Nc1c(F)cccc1F [Example 203, N-(2,6-difluorophenyl)-2-(ethyloxy)-5-(3-{2-[(5-methyl-2-(methyloxy)-4-{4-[2-(methylsulfonyl)ethyl)hexahydro-1H-1,4-diazepin-1-yl]phenyl)amino]-4-pyrimidinyl}imidazo[1,2-a]pyridin-2-yl)benzamide]
< 250	250 to 1000	< 100	< 100	CCOc1ccc(-c2nc3ccccn3c2-c2ccnc(Nc3ccc(N4CCN(CCOC)CC4)cc3OC)n2)cc1C(=O)Nc1c(F)cccc1F [Example 238, N-(2,6-difluorophenyl)-2-(ethyloxy)-5-(3-{2-[(2-(methyloxy)-4-{4-[2-(methyloxy)ethyl]-1-piperazinyl}phenyl)amino]-4-pyrimidinyl}imidazo[1,2-a]pyridin-2-yl)benzamide]
< 250	250 to 1000	< 100	< 100	COc1cc(N2CCN(S(C)(=O)=O)CC2)ccc1Nc1nccc(-c2c(-c3cccc(C(=O)Nc4c(F)cccc4F)c3)nc3ccccn23)n1 [Example 234, N-(2,6-difluorophenyl)-3-{3-[2-({2-(methyloxy)-4-[4-(methylsulfonyl)-1-piperazinyl]phenyl}amino)-4-pyrimidinyl}imidazo[1,2-a]pyridin-2-yl]benzamide]
< 250	< 250	< 100	< 100	COc1cc(N2CCC(N3CCN(S(C)(=O)=O)CC3)CC2)ccc1Nc1nccc(-c2c(-c3ccc(OC(C)C)c(C(=O)Nc4c(F)cccc4F)c3)nc3ccccn23)n1 [Example 227, N-(2,6-difluorophenyl)-2-[(1-methylethyl)oxy]-5-(3-{2-[(2-(methyloxy)-4-{4-[4-(methylsulfonyl)-1-piperazinyl]-1-piperidinyl}phenyl)amino]-4-pyrimidinyl}imidazo[1,2-a]pyridin-2-yl)benzamide]
250 to 1000	250 to 1000	< 100	100 to 500	COc1cc(N2CCC(N3CCN(S(C)(=O)=O)CC3)CC2)ccc1Nc1nccc(-c2c(-c3cccc(C(=O)Nc4c(F)cccc4F)c3)nc3c(F)cccn23)n1 [Example 192, N-(2,6-difluorophenyl)-3-(8-fluoro-3-{2-[(2-(methyloxy)-4-{4-[4-(methylsulfonyl)-1-piperazinyl]-1-piperidinyl}phenyl)amino]-4-pyrimidinyl}imidazo[1,2-a]pyridin-2-yl)benzamide]
< 250	< 250	< 100	< 100	CCOc1cc(N2CCN(CCS(C)(=O)=O)CC2)c(C)cc1Nc1nccc(-c2c(-c3cccc(C(=O)Nc4c(F)cccc4F)c3)nc3ccccn23)n1 [Example 246, N-(2,6-difluorophenyl)-3-(3-{2-[(2-(ethyloxy)-5-methyl-4-{4-[2-(methylsulfonyl)ethyl]-1-piperazinyl}phenyl)amino]-4-pyrimidinyl}imidazo[1,2-a]pyridin-2-yl)benzamide]
< 250	< 250	< 100	< 100	CCOc1cc(N2CCC(CCS(C)(=O)=O)CC2)c(CC)cc1Nc1nccc(-c2c(-c3ccc(OC)c(C(=O)Nc4c(F)cccc4F)c3)nc3ccccn23)n1 [Example 210, N-(2,6-difluorophenyl)-5-[3-{2-[(5-ethyl-2-(ethyloxy)-4-{4-[2-(methylsulfonyl)ethyl]-1-piperidinyl}phenyl)amino]-4-pyrimidinyl}imidazo[1,2-a]pyridin-2-yl)-2-(methyloxy)benzamide]
< 250	> 1000	< 100	100 to 500	COc1cc(N2CCC(N3CCN(CCS(C)(=O)=O)CC3)CC2)ccc1Nc1nccc(-c2c(-c3cccc(C(=O)Nc4c(F)cccc4F)c3)nc3c(F)cccn23)n1 [Example 193, N-(2,6-difluorophenyl)-3-[8-fluoro-3-(2-{[2-(methyloxy)-4-(4-{4-[2-(methylsulfonyl)ethyl]-1-piperazinyl}-1-piperidinyl)phenyl]amino}-4-pyrimidinyl)imidazo[1,2-a]pyridin-2-yl]benzamide]
